What all share (assay): Tumor cell proliferation inhibitory activity test in vitro (MTT)
For assay [1], the system named is colon carcinoma cell HCT116. It counts as cell-based, human. The following applies: Homo sapiens, HCT-116, 72 hours, read-out: IC50 of compounds for tumor cells, Activity, HCT116. The source says: (§1) Human non-small cell lung cancer cell line NCI-H460, human small cell lung cancer cell line NCI-H446, human hepatocellular carcinoma cell strain HepG2, human colon carcinoma cell strain HCT116, human prostate cancer PC-3, human melanoma A375, colon carcinoma cell HCT-8, breast cancer cell MCF-7, ovarian cancer cell A2780s, drug-resistant ovarian cancer cell A2780/T, drug-resistant colon cancer cell HCT-8/T and doxorubicin-resistant breast cancer cell MCF-7/ADR are obtained from American Type Culture Collection (ATCC) and are cultured and preserved by the cell bank of State Key Laboratory of Biotherapy of Sichuan University. Above tumor cells are routinely cultured in DMEM culture medium containing 10% fetal bovine serum, 100 U·mL-1 penicillin and 100 mg·L−1 streptomycin, and in an incubator at 37° C. and with saturated humidity and 5% CO2 concentration.
(§2) Fill diluted cell suspension in the 96-well plate with 1000-10000 cells per well and incubate it in CO2 incubator overnight.
(§3) Replace with new medium containing various concentrations of compounds to be tested for the test group and replace with fresh medium with equal volume for the control group, each group is arranged with 5 parallel wells and incubated in an incubator at 37° C. and with 5% CO2 concentration.
(§4) Discard the supernatant after 72 hours, add 200 μL freshly prepared serum-free medium containing 0.2 mg/mL MTT into each well, continue to incubate at 37° C. for 1-4 hours, then stop incubation, carefully remove the culture supernatant in the wells and add 200 uL DMSO (dimethyl sulfoxide), oscillate with a miniature ultrasonic oscillator for 15-20 minutes to make the crystal fully dissolved and mixed. Determine OD values using a microplate reader at 570 nm with a reference wavelength of 450 nm.
(§5) Draw curves based on the growth inhibition rate for tumor cells of the same sample with different concentrations to get dose-response curve, so as to calculate IC50. Repeat each test for 3 times, measure IC50 (μM) or nanomolor concentration (nM) of compounds in different tumor cells.

Assay [2] concerns hepatocellular carcinoma cell HEPG2. In kind it is cell-based, human. The following applies: Homo sapiens, HepG2, 72 hours, read-out: IC50 of compounds for tumor cells, Activity, HEPG2.
Source text: as §1, §2, §3, §4, §5

The subject of the next assay is melanoma A375. It counts as cell-based, human. Particulars: Homo sapiens, A-375, 72 hours, read-out: IC50 of compounds for tumor cells, Activity, A375.
Source text: as §1, §2, §3, §4, §5

Assay [3] relates to non-small cell lung cancer cell line NCI-H460. In kind it is cell-based, human. The following applies: Homo sapiens, NCI-H460, 72 hours, read-out: IC50 of compounds for tumor cells, Activity, H460.
Source text: as §1, §2, §3, §4, §5

The next assay concerns prostate cancer PC-3. In kind it is cell-based, human. The following applies: Homo sapiens, 72 hours, read-out: IC50 of compounds for tumor cells, Activity, PC-3.
Source text: as §1, §2, §3, §4, §5

For the next assay, the system named is breast cancer cell MCF-7. In kind it is cell-based. The following applies: Homo sapiens, MCF7, 72 hours, read-out: IC50 of compounds for tumor cells, Activity, MCF-7.
Source text: as §1, §2, §3, §4, §5

For the compound `COc1ccc2c(-c3ccc(-c4ccc(C)cc4)o3)cc(=O)oc2c1` [COUM-24, 4-(5-(4-methylbenzene)furan-2-yl)-7-methoxyl-coumarin], the IC50 (in assay [1]; in assay [2]; in the assay on melanoma A375; in assay [3]; in the assay on prostate cancer PC-3; in the assay with breast cancer cell MCF-7) was over 5 µM each time.
As to `COc1ccc2c(-c3ccc(-c4ccc5c(c4)OCO5)o3)cc(=O)oc2c1` [COUM-25, 4-(5-(3,4-(methylenedioxy)benzene)furan-2-yl)-7-methoxyl-coumarin], the IC50 (in assay [1]; in assay [2]; in the assay with melanoma A375; in assay [3]; with prostate cancer PC-3; with breast cancer cell MCF-7) was over 5 µM throughout.
For the compound `COc1ccc2c(-c3ccc(-c4ccccc4OC)o3)cc(=O)oc2c1` [COUM-26, 4-(5-(2-methoxybenzene)furan-2-yl)-7-methoxyl-coumarin], the IC50 (in assay [1]; in assay [2]; in the assay on melanoma A375; in assay [3]; in the assay with prostate cancer PC-3; in the assay with breast cancer cell MCF-7) was over 5 µM in each case.
Regarding `CCOC(=O)c1cccc(-c2ccc(-c3cc(=O)oc4cc(OC)ccc34)o2)c1` [COUM-27, 4-(5-(3-ethoxycarbonylbenzene)furan-2-yl)-7-methoxyl-coumarin], the half-inhibitory concentration (IC50) (in assay [1]; in assay [2]; with melanoma A375; in assay [3]; in the assay with prostate cancer PC-3; in the assay on breast cancer cell MCF-7) was over 5 µM throughout.
Consider `COc1ccc2c(-c3ccc(-c4ccc(Cl)cc4)o3)cc(=O)oc2c1` [COUM-28, 4-(5-(4-chlorobenzene)furan-2-yl)-7-methoxyl-coumarin], for which the IC50 (in assay [1]; in assay [2]; in the assay with melanoma A375; in assay [3]; in the assay with prostate cancer PC-3; in the assay on breast cancer cell MCF-7) was over 5 µM throughout.
For `COc1cccc(-c2ccc(-c3cc(=O)oc4ccccc34)s2)c1` [COUM-29, 4-(5-(3-methoxyphenyl)thiophene-2-yl)-coumarin], the IC50 (in assay [1]; in assay [2]; in the assay with melanoma A375; in assay [3]; in the assay on prostate cancer PC-3; in the assay on breast cancer cell MCF-7) was over 5 µM each time.
`O=c1cc(-c2ccc(-c3ccccc3Cl)s2)c2ccccc2o1` [COUM-30, 4-(5-(2-chlorobenzene)thiophene-2-yl)-coumarin]: the IC50 (in assay [1]; in assay [2]; in the assay on melanoma A375; in assay [3]; in the assay with prostate cancer PC-3; in the assay on breast cancer cell MCF-7) was over 5 µM each time.
Turning to `O=c1cc(-c2ccc(-c3ccc4c(c3)OCO4)s2)c2ccccc2o1` [COUM-31, 4-(5-(3,4-(methylenedioxy)benzene)thiophene-2-yl)-coumarin], the 50% inhibitory concentration (IC50) (in assay [1]; in assay [2]; with melanoma A375; in assay [3]; in the assay with prostate cancer PC-3; in the assay with breast cancer cell MCF-7) was over 5 µM throughout.
Consider `CCOC(=O)c1cccc(-c2ccc(-c3cc(=O)oc4ccccc34)s2)c1` [COUM-32], for which the IC50 (in assay [1]; in assay [2]; with melanoma A375; in assay [3]; with prostate cancer PC-3; with breast cancer cell MCF-7) was over 5 µM in each case.
As for `COc1cccc(-c2ccc(-c3cc(=O)oc4cc(OC)ccc34)s2)c1` [COUM-33, 4-(5-(3-methoxybenzene)thiophene-2-yl)-7-methoxyl-coumarin], the IC50 (in assay [1]; in assay [2]; in the assay with melanoma A375; in assay [3]; with prostate cancer PC-3; with breast cancer cell MCF-7) was over 5 µM in each case.
With `COc1ccc2c(-c3ccc(-c4ccccc4Cl)s3)cc(=O)oc2c1` [COUM-34, 4-(5-(2-chlorobenzene)thiophene-2-yl)-7-methoxyl-coumarin], the IC50 (in assay [1]; in assay [2]; with melanoma A375; in assay [3]; in the assay on prostate cancer PC-3; with breast cancer cell MCF-7) was over 5 µM each time.
Turning to `COc1ccc2c(-c3ccc(-c4cccc(Cl)c4)s3)cc(=O)oc2c1` [COUM-35, 4-(5-(3-chlorobenzene)thiophene-2-yl)-7-methoxyl-coumarin], the IC50 (in assay [1]; in assay [2]; with melanoma A375; in assay [3]; in the assay on prostate cancer PC-3; with breast cancer cell MCF-7) was over 5 µM throughout.
Take `COc1ccc2c(c1)CCCN2c1cc(=O)oc2ccccc12` [COUM-36, 4-(6-methoxy-3,4-dihydroquinoline-1(2H)-yl) coumarin]: the 50% inhibitory concentration (IC50) (in assay [1]; in assay [2]; in the assay with melanoma A375; in assay [3]; in the assay on prostate cancer PC-3; with breast cancer cell MCF-7) was over 5 µM in each case.
With `COc1ccc2c(c1)CN(c1cc(=O)oc3ccccc13)CCC2` [COUM-37, 4-(8-methoxy-1,3,4,5-tetrahydro-2H-benzoazepine-2-yl) Coumarin], the 50% inhibitory concentration (IC50) (in assay [1]; in assay [2]; in the assay with melanoma A375; in assay [3]; in the assay on prostate cancer PC-3; in the assay with breast cancer cell MCF-7) was 0.1 to 5 µM each time.
Turning to `COc1ccc2c(c1)CCCN2c1cc(=O)oc2cc(OC)ccc12` [COUM-38, 4-(6-methoxy-3,4-dihydroquinoline-1(211)-yl)-7 methoxycoumarin], the IC50 (in assay [1]; in assay [2]; with melanoma A375; in assay [3]; in the assay with prostate cancer PC-3; in the assay on breast cancer cell MCF-7) was 0.1 to 5 µM each time.
Regarding `COc1ccc2c(c1)CN(c1cc(=O)oc3cc(OC)ccc13)CCC2` [COUM-39, 4-(8-methoxy-1,3,4,5-tetrahydro-2H-benzoazepine-2-yl)-7-methoxycoumarin], the concentration for half-maximal inhibition (IC50) (in assay [1]; in assay [2]; with melanoma A375; in assay [3]; in the assay with prostate cancer PC-3; in the assay on breast cancer cell MCF-7) was 0.1 to 5 µM in each case.
With `COc1ccc(N(C)c2cc(=O)oc3cc(OC)ccc23)cc1` [COUM-40, 4-(N-methyl-N-(4-methoxybenzene)-amino)-7-methoxycoumarin], the half-inhibitory concentration (IC50) (in assay [1]; in assay [2]; in the assay with melanoma A375; in assay [3]; in the assay with prostate cancer PC-3; in the assay on breast cancer cell MCF-7) was 0.01 to 0.1 µM in each case.
As for `CCN(CC)c1ccc2c(N(C)c3ccc(OC)cc3)cc(=O)oc2c1` [COUM-41, 4-(N-methyl-N-(4-methoxybenzene)-amino)-7-diethylaminocoumarin], the IC50 (in assay [1]; in assay [2]; with melanoma A375; in assay [3]; in the assay on prostate cancer PC-3; in the assay with breast cancer cell MCF-7) was 0.01 to 0.1 µM each time.
On to `COc1ccc(N(C)c2cc(=O)oc3ccccc23)cc1` [COUM-43, 4-(N-methyl-N-(4-methoxybenzene)-amino) coumarin], for which the IC50 (in assay [1]; in assay [2]; in the assay with melanoma A375; in assay [3]; with prostate cancer PC-3; in the assay with breast cancer cell MCF-7) was 0.01 to 0.1 µM each time.
For `COc1ccc2c(N(C)c3cc(OC)c(OC)c(OC)c3)cc(=O)oc2c1` [COUM-44], the IC50 (in assay [1]; in assay [2]; with melanoma A375; in assay [3]; in the assay on prostate cancer PC-3; with breast cancer cell MCF-7) was 0.01 to 0.1 µM in each case.
On to `CCOC(=O)COc1cc(N(C)c2cc(=O)oc3ccccc23)ccc1OC` [COUM-45, 4-(N-methyl-N-(4-methoxy-3-(2-ethoxy-2-carbonylethoxy)-benzene)-amino) coumarin], for which the IC50 (in assay [1]; in assay [2]; with melanoma A375; in assay [3]; in the assay on prostate cancer PC-3; in the assay on breast cancer cell MCF-7) was 0.01 to 0.1 µM each time.

As a reminder, the IC50 is the concentration that inhibits the measured activity by half.

The values above are taken from patent publication US10544134B2, “4-substituted coumarin derivatives and preparation methods and uses thereof” (SI CHUAN UNIVERSITY, priority 2015, dated 2020).
